Results: patent US20010025105A1, “Certain substituted 1-aryl-3-piperazine-1'-yl propanones” (Molecular Geriatarics Corporation, priority 1997, published 2001)
Counter-ions that a name gives are not always drawn.

system: microtubule cytoskeleton of human CG neuroblastoma cells; test: Antimicrotubule activity, tubulin immunofluorescence microscopy; type: cell-based; conditions: 2 hr at 37° C., read-out: Concentration where microtubule destabilization occurs
Experimental: The compounds of the invention according to formula I are effective in destabilizing microtubules, thus are useful in treating certain neoplastic diseases. Indirect immunofluorescence microscopy using the monoclonal antibodies to tubulin is used herein to determine the activity of the compounds of this invention in promoting depolymerization of the microtubule cytoskeleton in cultured cells. The following assay was employed.
Cultured human CG neuroblastoma cells were seeded 1:3 from confluent cultures onto sterile 11×22 mm coverslips in 6 well tissue culture plates 16 hr prior to treatment. The following day, the tissue culture medium is removed and the cells are exposed to various concentrations of compounds of this invention in Krebs Ringer Hepes (KRH) buffer containing a final concentration of 0.5% DMSO as carrier. Incubations were performed at 37° C. in a humidified 5% CO2 atmosphere for 2 hr. After incubation, the cells were fixed in 3% TEM grade formaldehyde in PBS for 45 min at room temperature.
To visualize the effects of the compounds of the invention on the microtubule cytoskeleton, the cells were processed for tubulin immunofluorescence. Briefly, the cells were permeabilized in 0.5% Triton-X 100 in PBS for 5 min. The cells were washed 2× with PBS and aldehydes reduced using 0.5 mg/ml NaBH4 in PBS for 5 min. Subsequently, the cells were blocked for 10 min in 1.5% BSA and 1.5% nonfat dry milk in PBS (blocking solution, BS) for 10 min. The cells were then incubated for 30 min at 37° C. with the monoclonal antibody Tu27B which recognizes b-tubulin (dilution 1:20 in BS). Subsequently, the cells were washed 2× in PBS and once in BS. The cells were then incubated for 30 min at 37° C. with sheep antimouse IgG conjugated to FITC. After incubation, the cells were washed 2× in PBS and once in BS and incubated for 30 min at 37° C. with rabbit antisheep IgG conjugated to FITC. The cells were rinsed in PBS, counterstained with Hoechst 33285 in PBS (1 μg/ml), and rinsed in PBS. The coverslips were mounted in 9:1 glycerol:PBS containing 1 mg/ml p-phenylenediamine and sealed with nail polish.
The cells were viewed using a Jenalumar epifluorescence microscope equipped with the proper filters for Fluorescein Isothiocyanate (FITC) excitation and emission. Lack of effect of a compound is evidenced by the presence of an intact microtubule network in interphase cells, or a mitotic spindle in dividing cells. Antineoplastic compounds of the invention at effective doses result in the disappearance of microtubules in both interphase and mitotic cells.

SMILES | minimal effective concentration [µM]
Cl.Cl.O=C(CCN1CCN(Cc2ccccc2)CC1)c1cccs1 [Example 7, 1-(2″-Thienyl)-3-(4′-benzyl-1′-piperazinyl)-1-propanone dihydrochloride] | 20
Cl.Cl.O=C(CCN1CCN(Cc2ccccc2)CC1)c1ccc(C2CCCCC2)cc1 [Example 27] | 20
Cl.Cl.O=C(CCN1CCN(Cc2cc(F)ccc2F)CC1)c1ccsc1 [Example 38, 1-(3″-Thienyl)-3-[4′-(2′″,5′″-difMuorobenzyl)-1′-piperazinyl]-1-propanone dihydrochloride] | 20
Cl.O=C(CCN1CCN(C(=O)c2c(F)cccc2F)CC1)c1ccccc1F [Example 41, 1-(o-Fluorophenyl)-3-[4′-(2″,6″-difluorobenzoyl)1′-piperazinyl]-1-propanone hydrochloride] | 20

same assay, conditions: Neuroblastoma cell, 2 hr at 37° C., read-out: Concentration where microtubule destabilization occurs

SMILES | minimal effective concentration [µM]
O=C(CCN1CCN(Cc2ccccc2)CC1)c1cc(C(F)(F)F)cc(C(F)(F)F)c1 [Example 9, 1-[3″,5″-Bis-(trifluoromethyl)phenyl]-3-(4′-benzyl-1′-piperazinyl)-1-propanone dihydrochloride] | 20
O=C(CCN1CCN(Cc2ccccc2)CC1)c1ccc2c(c1)CCCC2 [Example 20, 1-(1″,2″,3″,4″-Tetrahydronaphth-6″-yl)-3-(4′-benzyl-1′-piperazinyl)-1-propanone dihydrochloride] | 20
O=C(CCN1CCN(Cc2ccccc2)CC1)c1ccc(-c2ccccc2)cc1 [Example 22, 1-p-Biphenyl-3-(4′-benzyl-1′-piperazinyl)-1-propanone dihydrochloride] | 20
O=C(CCN1CCN(C(=O)c2c(F)cccc2F)CC1)c1ccc([N+](=O)[O-])cc1 [Example 40, 1-(p-Nitrophenyl)-3-[4′-(2″,6″-difluorobenzoyl)-1′-piperazinyl]-1-propanone hydrochloride] | 20
O=C(CCN1CCN(Cc2ccccc2)CC1)c1ccc(C(=O)CCN2CCN(Cc3ccccc3)CC2)cc1 [Example 50] | 20

system: not given; test: not given; conditions: not given

melting point | SMILES
225 °C (dec.) | O=C(CCN1CCN(Cc2ccccc2)CC1)c1ccc2c(c1)Cc1ccccc1-2 (as salt: hydrochloride) [Example 28, 1-(Fluoren-2″-yl)-3-(4′-benzyl-1′-piperazinyl)-1-propanone dihydrochloride]
225 to 227 °C | O=C(CCN1CCN(C(=O)c2c(F)cccc2F)CC1)c1ccc([N+](=O)[O-])cc1 (as salt: hydrochloride) [Example 40, 1-(p-Nitrophenyl)-3-[4′-(2″,6″-difluorobenzoyl)-1′-piperazinyl]-1-propanone hydrochloride]
217 to 218 °C | O=C(CCN1CCN(C(=O)c2ccccc2F)CC1)c1ccc([N+](=O)[O-])cc1 (as salt: hydrochloride) [Example 54, 1-(p-Nitrophenyl)-3-(4′-o-fluorobenzoyl-1′-piperazinyl)-1-propanone dihydrochloride]
224 to 247 °C | O=C(CCN1CCN(Cc2ccccc2)CC1)c1ccc(-c2ccccc2)s1 (as salt: hydrochloride) [Example 56, 1-(5″-Phenyl-2″-thienyl)-3-(4′-benzyl-1′-piperazinyl)-1-propanone dihydrochloride]
225 to 226 °C | O=C(CCN1CCN(C(=O)c2c(F)cccc2F)CC1)c1ccc(Br)s1 (as salt: hydrochloride) [Example 62, 1-(5′″-Bromo-2′″-thienyl)-3-[4′-(2″,6″-difluorobenzoyl)-1′-piperazinyl]-1-propanone hydrochloride]
240 °C | O=C(CCN1CCN(C(=O)c2ccc(I)cc2)CC1)c1ccc(N2CCOCC2)cc1 (as salt: hydrochloride) [Example 68, 1-(p-N-Morpholinophenyl)-3-[4′-p-iodobenzoyl)-1′-piperazinyl]-1-propanone dihydrochloride]
183 to 184 °C | O=C(CCN1CCN(C(=O)c2ccccc2F)CC1)c1cccs1 (as salt: hydrochloride) [Example 70, 1-(2″-Thienyl)-3-[4′-(o-fluorobenzoyl)-1′-piperazinyl]-1-propanone hydrochloride]
230 °C (dec.) | COc1ccc(C(=O)CCN2CCN(Cc3ccccc3)CC2)c2ccccc12 (as salt: hydrochloride) [Example 79, 1-(4″-Methoxy-1″-naphthalenyl)-3-(4′-benzyl-1′-piperazinyl)-1-propanone dihydrochloride]
247 °C (dec.) | Cc1c(C(=O)CCN2CCN(Cc3ccccc3)CC2)sc2ccc(Cl)cc12 (as salt: hydrochloride) [Example 82, 1-(5″-Chloro-3″-methylbenzo[b]-2″-thienyl)-3-(4′-benzyl-1′-piperazinyl)-1-propanone dihydrochloride]
188 to 189 °C | O=C(CCN1CCN(C(=O)c2sc3ccccc3c2Cl)CC1)c1ccc(Br)s1 (as salt: hydrochloride) [Example 86, 1-(5″-Bromo-2″-thienyl)-3-[4′-(3′″-chlorobenzo[b]-2′″-thienoyl)-1′-piperazinyl]-1-propanone dihydrochloride]
189 to 201 °C | O=C(CCN1CCN(C(c2ccccc2)c2ccc(Cl)cc2)CC1)c1cccs1 (stereo not drawn) (as salt: hydrochloride) [Example 89, 1-(2″-Thienyl)-3-[4′-(1′″-p-chlorophenyl-1′″-phenylmethyl)-1′-piperazinyl]-1-propanone dihydrochloride]
205 to 208 °C | O=C(CCN1CCC(Cc2ccccc2)CC1)c1ccc(Br)s1 (as salt: hydrochloride) [Example 99, 1-(5″-Bromo-2″-thienyl)-3-(4′-benzyl-1′-piperidinyl)-1-propanone hydrochloride]
133 to 134 °C | O=C(CCN1CCN(Cc2ccccc2)CC1)c1ccc2c(c1)-c1ccccc1-2 [Example 58, 1-(Biphenylen-2″-yl)-3-(4′-benzyl-1′-piperazinyl)-1-propanone]

SMILES | melting point
CS(=O)(=O)Nc1ccc(C(=O)CCN2CCN(Cc3ccccc3)CC2)cc1 (as salt: hydrochloride) [Example 26, 1-[-p-(Methanesulfonamido)phenyl]-3-(4′-benzyl-1′-piperazinyl)-1-propanone dihydrochloride] | 202 to 205 °C
Cc1ccc(C(=O)CCN2CCN(Cc3ccccc3)CC2)o1 (as salt: hydrochloride) [Example 67, 1-(5″-Methyl-2″-furanyl)-3-(4′-benzyl-1′-piperazinyl)-1-propanone hydrochloride] | 213 °C (dec.)
O=C(CCN1CCN(Cc2ccccc2)CC1)c1ccc(Sc2ccccc2)cc1 (as salt: hydrochloride) [Example 69, 1-p-Phenylthiophenyl-3-(4′-benzyl-1′-piperazinyl)-3-propanone dihydrochlonde] | 210 °C (dec.)
O=C(CCN1CCN(Cc2ccccc2)CC1)c1cccn1S(=O)(=O)c1ccccc1 (as salt: hydrochloride) [Example 91, 1-(N-Phenylsulfonylpyrrol-2-yl)-3-(4′-benzyl-1′-piperazinyl)-1-propanone dihydrochloride] | 215 °C (dec.)
O=C(CCN1CCC(C(=O)c2ccc(F)cc2)CC1)c1csc([N+](=O)[O-])c1 (as salt: hydrochloride) [Example 98, 1-(2″-Nitro-4″-thienyl)-3-(4′-p-fluorobenzoyl-1′-piperidinyl)-1-propanone hydrochloride] | 205 to 206 °C
